Assay [1] deals with Protein arginine N-methyltransferase 1 (Homo sapiens, UniProt Q99873). The experiment in a line: Inhibition of human PRMT1 using H4-21peptide as substrate at 10 uM incubated for 10 mins by fluorescence based analysis relative to control.
In assay [2] the target is T1, Histone-arginine methyltransferase CARM1 (Homo sapiens) (UniProt Q86X55).
T1 sequence (whole entry): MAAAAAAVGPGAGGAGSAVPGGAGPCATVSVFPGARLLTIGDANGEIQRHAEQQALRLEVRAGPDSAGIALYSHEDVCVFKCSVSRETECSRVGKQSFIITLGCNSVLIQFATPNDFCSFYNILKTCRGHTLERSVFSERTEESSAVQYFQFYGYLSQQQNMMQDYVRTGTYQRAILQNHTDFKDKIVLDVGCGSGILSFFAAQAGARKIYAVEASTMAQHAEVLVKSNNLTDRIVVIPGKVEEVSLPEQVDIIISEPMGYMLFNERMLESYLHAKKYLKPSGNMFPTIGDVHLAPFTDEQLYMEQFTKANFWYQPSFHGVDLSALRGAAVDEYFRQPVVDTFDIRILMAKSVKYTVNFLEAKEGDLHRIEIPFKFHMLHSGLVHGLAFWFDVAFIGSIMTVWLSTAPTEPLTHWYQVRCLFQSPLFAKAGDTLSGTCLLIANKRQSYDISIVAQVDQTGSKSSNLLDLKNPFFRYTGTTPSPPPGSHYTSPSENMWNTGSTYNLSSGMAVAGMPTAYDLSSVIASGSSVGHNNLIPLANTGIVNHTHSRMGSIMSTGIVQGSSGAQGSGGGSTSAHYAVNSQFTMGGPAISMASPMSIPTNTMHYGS
Nature of the assay: Inhibition of human PRMT4 using histone H3 as substrate and SAM as cofactor at 10 uM by radiometric HotSpot assay relative to control.

In assay [3] the target is Protein arginine N-methyltransferase 3 (Homo sapiens, UniProt O60678). Nature of the assay: Inhibition of human PRMT3 using H4-21peptide as substrate at 10 uM incubated for 10 mins by fluorescence based analysis relative to control.
Assay [4] has as its target Protein arginine N-methyltransferase 8 (Homo sapiens, UniProt Q9NR22). Nature of the assay: Inhibition of human PRMT8 using Histone H4 as substrate and SAM as cofactor at 10 uM by radiometric HotSpot assay relative to control.
Assay [5] addresses Protein arginine N-methyltransferase 6 (Homo sapiens, UniProt Q96LA8). Nature of the assay: Inhibition of human PRMT6 using GST-GAR as substrate and SAM as cofactor at 10 uM by radiometric HotSpot assay relative to control.

The inhibition is the relative decrease from the control value, in per cent.

Each structure is given as a SMILES string. The source made the active and inactive calls. The calls are words filed in the database; no cut-off is given here. Some results are limits rather than exact numbers.

Sequence of Protein arginine N-methyltransferase 6 (Q96LA8 whole entry, looked up): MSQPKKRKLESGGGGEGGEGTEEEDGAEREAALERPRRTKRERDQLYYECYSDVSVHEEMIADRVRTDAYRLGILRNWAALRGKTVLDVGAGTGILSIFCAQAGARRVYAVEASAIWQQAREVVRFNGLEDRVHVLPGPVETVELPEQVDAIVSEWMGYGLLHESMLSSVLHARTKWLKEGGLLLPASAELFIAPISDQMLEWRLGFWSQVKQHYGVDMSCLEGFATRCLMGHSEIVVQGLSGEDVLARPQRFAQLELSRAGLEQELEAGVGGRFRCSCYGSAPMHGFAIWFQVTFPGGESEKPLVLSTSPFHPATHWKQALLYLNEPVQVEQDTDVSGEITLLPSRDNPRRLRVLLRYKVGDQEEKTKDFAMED
Sequence of Protein arginine N-methyltransferase 8 (Q9NR22 2-394 limits assumed): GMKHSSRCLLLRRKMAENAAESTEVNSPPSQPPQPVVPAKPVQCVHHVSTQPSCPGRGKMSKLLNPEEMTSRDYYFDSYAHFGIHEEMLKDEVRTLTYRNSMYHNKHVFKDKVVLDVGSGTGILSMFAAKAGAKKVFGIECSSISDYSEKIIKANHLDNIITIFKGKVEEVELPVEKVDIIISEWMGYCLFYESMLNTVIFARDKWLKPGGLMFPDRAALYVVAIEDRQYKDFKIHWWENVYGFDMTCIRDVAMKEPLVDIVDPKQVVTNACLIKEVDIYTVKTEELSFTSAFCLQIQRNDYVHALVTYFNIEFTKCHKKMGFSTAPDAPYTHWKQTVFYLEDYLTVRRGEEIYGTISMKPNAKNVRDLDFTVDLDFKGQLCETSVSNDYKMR
Sequence of Protein arginine N-methyltransferase 1 (Q99873 whole entry, looked up): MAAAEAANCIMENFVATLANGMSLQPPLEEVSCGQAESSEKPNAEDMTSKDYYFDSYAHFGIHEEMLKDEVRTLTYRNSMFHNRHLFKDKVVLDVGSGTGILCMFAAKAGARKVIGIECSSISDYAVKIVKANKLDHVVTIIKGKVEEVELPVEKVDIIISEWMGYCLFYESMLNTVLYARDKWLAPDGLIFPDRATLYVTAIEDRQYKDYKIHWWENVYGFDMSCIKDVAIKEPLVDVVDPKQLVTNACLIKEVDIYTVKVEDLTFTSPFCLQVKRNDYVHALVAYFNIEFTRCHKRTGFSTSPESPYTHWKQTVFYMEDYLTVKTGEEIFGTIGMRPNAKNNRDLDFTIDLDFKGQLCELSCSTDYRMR
Sequence of Protein arginine N-methyltransferase 3 (O60678 2-531 limits assumed): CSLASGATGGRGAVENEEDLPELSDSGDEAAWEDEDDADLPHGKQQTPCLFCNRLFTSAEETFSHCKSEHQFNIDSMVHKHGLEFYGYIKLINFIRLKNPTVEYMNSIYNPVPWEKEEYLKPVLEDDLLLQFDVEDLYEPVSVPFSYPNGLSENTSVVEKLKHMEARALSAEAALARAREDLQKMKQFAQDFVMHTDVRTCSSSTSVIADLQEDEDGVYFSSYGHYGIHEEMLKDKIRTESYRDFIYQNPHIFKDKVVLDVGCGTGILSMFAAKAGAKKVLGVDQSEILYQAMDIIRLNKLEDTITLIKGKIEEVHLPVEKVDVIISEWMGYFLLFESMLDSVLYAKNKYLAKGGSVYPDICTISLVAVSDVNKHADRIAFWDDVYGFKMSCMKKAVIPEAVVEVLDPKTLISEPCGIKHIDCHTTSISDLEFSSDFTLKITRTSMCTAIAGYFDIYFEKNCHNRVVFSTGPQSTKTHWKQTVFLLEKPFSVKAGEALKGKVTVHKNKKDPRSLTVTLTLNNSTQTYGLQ

Consider `Nc1ncnc2c1ncn2[C@@H]1O[C@H](CSCCNC(=O)NCc2ccc(-c3cccc(O)c3)cc2)[C@@H](O)[C@H]1O`, for which the inhibition in assay [1] is < 50%; in assay [2] it was 27%; in assay [3], 3%; in assay [4], < 30%; in assay [5], 70%.

As for `Nc1ncnc2c1ncn2[C@@H]1O[C@H](CSCCOc2ccc(-c3cncnc3)cc2)[C@@H](O)[C@H]1O`, the inhibition result in assay [1] was “inactive”. Also, the values for the inhibition in assay [3], in assay [4] and in assay [5] were < 30%, < 50% and < 50%, respectively.

Turning to `Nc1cccc(-c2ccc(CNC(=O)NCCSC[C@H]3O[C@@H](n4cnc5c(N)ncnc54)[C@H](O)[C@@H]3O)cc2)c1`, the inhibition is < 50% in assay [1]; 27% in assay [2]; 3% in assay [3]; < 30% in assay [4]; 70% in assay [5].

In the case of `COc1cc2nc(-c3ccc(Cl)cc3)nc(NCCSC[C@H]3O[C@@H](n4cnc5c(N)ncnc54)[C@H](O)[C@@H]3O)c2cc1OC`, the inhibition result in assay [1] is “inactive”. Moreover, the inhibition in assay [3] is < 30%; in assay [4], < 50%; in assay [5], > 70%.

As to `N=C(NCCCSC[C@H]1O[C@@H](n2cnc3c(NCCCc4ccccc4)ncnc32)[C@H](O)[C@@H]1O)NCCCc1ccccc1`, the inhibition result in assay [1], in assay [2] and in assay [5] was “Active” throughout. Moreover, the inhibition in assay [3] was < 30%; in assay [4], 70%.

`Nc1ncnc2c1ncn2[C@@H]1O[C@H](CSCCOc2ccc(-c3ccc(F)cc3)cc2)[C@@H](O)[C@H]1O`: the inhibition result in assay [1] is “inactive”. For the same compound, the inhibition in assay [3] was < 30%; in assay [4] it was < 50%; in assay [5] it was < 50%.

As for `N=C(NCCCO)NCCCSC[C@H]1O[C@@H](n2cnc3c(NCCCc4ccccc4)ncnc32)[C@H](O)[C@@H]1O`, the inhibition result in assay [1], in assay [2] and in assay [5] was “Active” in each case. Also, the inhibition in assay [3] is < 30%; in assay [4], 70%.

In the case of `N=C(NCCCSC[C@H]1O[C@@H](n2cnc3c(NCCCc4ccccc4)ncnc32)[C@H](O)[C@@H]1O)NCC1CC1`, the inhibition entry in assay [1], in assay [2] and in assay [5] was “Active” each time. For the same compound, the inhibition in assay [3] was < 30%; in assay [4], 70%.

Turning to `COc1cc2nc(-c3ccc(O)cc3)nc(NCCSC[C@H]3O[C@@H](n4cnc5c(N)ncnc54)[C@H](O)[C@@H]3O)c2cc1OC`, in assay [1], the inhibition entry was “inactive”. The inhibition in assay [3] was < 30%; in assay [4], < 50%; in assay [5] it was > 70%.

For the compound `Nc1ncnc2c1ncn2[C@@H]1O[C@H](CSCCCNC(=O)NCc2ccc3c(c2)OCO3)[C@@H](O)[C@H]1O`, the inhibition was < 50% in assay [1]; 27% in assay [2]; 3% in assay [3]; < 30% in assay [4]; 70% in assay [5].

As for `Nc1ncnc2c1ncn2[C@@H]1O[C@H](CSCCNC(=O)NCc2ccccc2)[C@@H](O)[C@H]1O`, the inhibition is < 50% in assay [1]; > 90% in assay [2]; > 50% in assay [3]; < 30% in assay [4]; 70% in assay [5].

On to `N=C(NCCCN)NCCCSC[C@H]1O[C@@H](n2cnc3c(NCCCc4ccccc4)ncnc32)[C@H](O)[C@@H]1O`, for which the inhibition result in assay [1], in assay [2] and in assay [5] was “Active” in each case. In addition, the inhibition in assay [3] is < 30%; in assay [4] it was 70%.

Take `Nc1ncnc2c1ncn2[C@@H]1O[C@H](CSCCOc2ccc(-c3ccc(Cl)cc3)cc2)[C@@H](O)[C@H]1O`: the inhibition result in assay [1] was “inactive”. In addition, the inhibition in assay [3] is < 30%; in assay [4], < 50%; in assay [5] it was < 50%.

Consider `N=C(NCCCSC[C@H]1O[C@@H](n2cnc3c(NCCCc4ccccc4)ncnc32)[C@H](O)[C@@H]1O)NCCc1ccccc1`, for which the inhibition entry in assay [1], in assay [2] and in assay [5] was “Active” throughout. Moreover, the results for the inhibition in assay [3] and in assay [4] were < 30% and 70%, respectively.

On to `N=C(NCCCSC[C@H]1O[C@@H](n2cnc3c(NCCCc4ccccc4)ncnc32)[C@H](O)[C@@H]1O)NCC1CCC1`, for which the inhibition entry in assay [1], in assay [2] and in assay [5] was “Active” throughout. In addition, the inhibition is < 30% in assay [3] and 70% in assay [4].

`N=C(NCCCSC[C@H]1O[C@@H](n2cnc3c(NCCCc4ccccc4)ncnc32)[C@H](O)[C@@H]1O)Nc1ccccc1`: the inhibition entry in assay [1], in assay [2] and in assay [5] was “Active” each time. For the same compound, the inhibition in assay [3] is < 30%; in assay [4], 70%.

For the compound `Nc1ncnc2c1ncn2[C@@H]1O[C@H](CSCCOc2ccc(-c3ccncc3)cc2)[C@@H](O)[C@H]1O`, in assay [1], the inhibition entry was “inactive”. The inhibition is < 30% in assay [3], < 50% in assay [4] and < 50% in assay [5].

Consider `Nc1ccc(-c2ccc(CNC(=O)NCCSC[C@H]3O[C@@H](n4cnc5c(N)ncnc54)[C@H](O)[C@@H]3O)cc2)cc1`, for which the inhibition is < 50% in assay [1]; 27% in assay [2]; 3% in assay [3]; < 30% in assay [4]; 70% in assay [5].

`Nc1ncnc2c1ncn2[C@@H]1O[C@H](CSCCOc2ccc(-c3cccc(O)c3)cc2)[C@@H](O)[C@H]1O`: the inhibition result in assay [1] is “inactive”. The inhibition in assay [3] was < 30%; in assay [4], < 50%; in assay [5] it was < 50%.

Regarding `N=C(NCCCSC[C@H]1O[C@@H](n2cnc3c(NCCCc4ccccc4)ncnc32)[C@H](O)[C@@H]1O)NCc1ccccc1`, the inhibition result in assay [1], in assay [2] and in assay [5] was “Active” in each case. The values for the inhibition in assay [3] and in assay [4] were < 30% and 70%, respectively.

Take `N=C(NCCCSC[C@H]1O[C@@H](n2cnc3c(NCCCc4ccccc4)ncnc32)[C@H](O)[C@@H]1O)NC1CCC1`: the inhibition entry in assay [1], in assay [2] and in assay [5] was “Active” each time. Besides, the inhibition was < 30% in assay [3] and 70% in assay [4].

For `Nc1ncnc2c1ncn2[C@@H]1O[C@H](CSCCCNCc2cccc(-c3cccc4cn[nH]c34)c2)[C@@H](O)[C@H]1O`, the inhibition is > 90% in assay [2], < 30% in assay [3], > 50% in assay [4] and 50% in assay [5].

For `N=C(NCCCSC[C@H]1O[C@@H](n2cnc3c(NCCCc4ccccc4)ncnc32)[C@H](O)[C@@H]1O)NC1CCCC1`, the inhibition entry in assay [1], in assay [2] and in assay [5] was “Active” throughout. Also, the figures for the inhibition in assay [3] and in assay [4] were < 30% and 70%, respectively.

As for `Nc1ncnc2c1ncn2[C@@H]1O[C@H](CSCCNCc2cccc(-c3ccncc3)c2)[C@@H](O)[C@H]1O`, the inhibition is > 90% in assay [2], < 30% in assay [3], > 50% in assay [4] and 50% in assay [5].

Turning to `Nc1ncnc2c1ncn2[C@@H]1O[C@H](CSCCOc2ccc(-c3ccccc3O)cc2)[C@@H](O)[C@H]1O`, the inhibition result in assay [1] was “inactive”. Further, the results for the inhibition in assay [3], in assay [4] and in assay [5] were < 30%, < 50% and < 50%, respectively.

Turning to `Nc1ncnc2c1ncn2[C@@H]1O[C@H](CSCCNCc2cccc(-c3ccc(F)c(O)c3)c2)[C@@H](O)[C@H]1O`, the inhibition is > 90% in assay [2], < 30% in assay [3], > 50% in assay [4] and 50% in assay [5].

On to `Nc1ncnc2c1ncn2[C@@H]1O[C@H](CSCCOc2ccc(-c3ccc(O)cc3)cc2)[C@@H](O)[C@H]1O`, for which, in assay [1], the inhibition entry is “inactive”. In addition, the inhibition in assay [3] is < 30%; in assay [4], < 50%; in assay [5] it was < 50%.

Turning to `Nc1ncnc2c1ncn2[C@@H]1O[C@H](CSCCOc2ccc(-c3ccc(F)c(O)c3)cc2)[C@@H](O)[C@H]1O`, the inhibition entry in assay [1] was “inactive”. Further, the figures for the inhibition in assay [3], in assay [4] and in assay [5] were < 30%, < 50% and < 50%, respectively.
